Test results: publication PMC11968843, “Sulphostin-inspired N-phosphonopiperidones as selective covalent DPP8 and DPP9 inhibitors” (Nature Communications, 2025)
“And” between values parts separate entries of the source, which are not always exact repeats. Equal entries are not always repeated. “Also recorded” adds a separate entry of the source.

Columns and labels:
[1] = target: T1, HEK293 cell lysates (proteome-wide targets of probe 9) (Homo sapiens, UniProt P0DMV8); assay: Competitive ABPP / direct target identification with alkyne probe 9 in HEK293 cell lysates; format: binding, H. sapiens; details: protein HSPA1A;HSPA1B
T1 construct: endogenous in cells; host or cells: HEK293 cell lysate

[2] = target: T2, HEK293 cell lysates (proteome-wide targets of probe 9) (Homo sapiens, UniProt Q08211); assay: as above; format: binding, H. sapiens; details: protein DHX9
T2 construct: endogenous in cells; host or cells: HEK293 cell lysate

[3] = target: T3, HEK293 cell lysates (proteome-wide targets of probe 9) (Homo sapiens, UniProt P49327); assay: as above; format: binding, H. sapiens; details: protein FASN
T3 construct: endogenous in cells; host or cells: HEK293 cell lysate

[4] = target: T4, HEK293 cell lysates (proteome-wide targets of probe 9) (Homo sapiens, UniProt Q13642); assay: as above; format: binding, H. sapiens; details: protein FHL1
T4 construct: endogenous in cells; host or cells: HEK293 cell lysate

[5] = target: T5, HEK293 cell lysates (proteome-wide targets of probe 9) (Homo sapiens, UniProt P05388); assay: as above; format: binding, H. sapiens; details: protein RPLP0;RPLP0P6
T5 construct: endogenous in cells; host or cells: HEK293 cell lysate

[6] = target: T6, HEK293 cell lysates (proteome-wide targets of probe 9) (Homo sapiens, UniProt P37802); assay: as above; format: binding, H. sapiens; details: protein TAGLN2
T6 construct: endogenous in cells; host or cells: HEK293 cell lysate

[7] = target: T7, HEK293 cell lysates (proteome-wide targets of probe 9) (Homo sapiens, UniProt P22234); assay: as above; format: binding, H. sapiens; details: protein PAICS
T7 construct: endogenous in cells; host or cells: HEK293 cell lysate

[8] = target: T8, HEK293 cell lysates (proteome-wide targets of probe 9) (Homo sapiens, UniProt P06748); assay: as above; format: binding, H. sapiens; details: protein NPM1
T8 construct: endogenous in cells; host or cells: HEK293 cell lysate

[9] = target: T9, HEK293 cell lysates (proteome-wide targets of probe 9) (Homo sapiens, UniProt P22626); assay: as above; format: binding, H. sapiens; details: protein HNRNPA2B1;HNRPA2B1
T9 construct: endogenous in cells; host or cells: HEK293 cell lysate

[10] = system: HeLa wild-type cells; assay: Cell viability assay (MTT), inhibitor alone; format: cell-based; details: for Cell viability normalized to mock treated cells + 0 µM MMC: individual replicate values (Supplementary Figure 11a); for 95% confidence interval of difference: Figure 5d S11a, Ctrl. [-MMC] vs. compound [-MMC], Tukey's multiple comparisons test
Protocol: HeLa wild-type (HeLa Flp-In T-REx WT, kind gift from Prof. Matthias Hentze) and HeLa DPP9^KO cells (prepared in-house) were cultured in DMEM (ThermoFisher, USA) supplemented with 10% FBS (PAN Biotech, Germany), 2 mM L-Glutamin (ThermoFisher, USA) and 1% Penicillin/Streptomycin (100 U mL^−1 Penicillin and 100 µg mL^−1 Streptomycin, ThermoFisher, USA). Cells were seeded in 96-well flat-bottom cell culture plates (Greiner, Germany) at a concentration of 5 × 10^3 cells per well (37 °C and 5% CO2). The indicated concentration of Mitomycin C (MMC, Merck) was added to the cells 24 h after seeding, together with 10 µM of the indicated inhibitor. The inhibitors were refreshed every 24 h. Control cells were treated with DMSO.
Cell viability was measured 72 hours after the MMC treatment. For this, the medium was removed and replaced with phenol-red free DMEM (ThermoFisher, USA) containing 0.5 mg mL^−1 MTT (Sigma Aldrich, USA). Cells were incubated for 30 min at 37 °C, 5% CO2. Subsequently, the medium was removed and replaced by DMSO. The plates were shaken on an orbital shaker for 20 min before measuring the MTT signal on a CARIOstar Plus microplate reader (BMT labtech, Germany). Each experiment was performed three times, each in triplicates.

[11] = target: T10, DPP9-BRCA2 interaction in HeLa wild-type cells (Homo sapiens, UniProt Q86TI2); assay: Proximity ligation assay (PLA) of MMC-induced DPP9-BRCA2 interaction; format: cell-based; details: for 95% confidence interval of difference: compound vs. +Ctrl., Unpaired two-sided t-test
T10 construct: endogenous in cells; host or cells: HeLa wild-type (HeLa Flp-In T-REx WT)
Protocol: HeLa wild-type cells were cultured as described above. Cells were seeded on coverslips in 24‐well plates (Greiner, Germany) at a concentration of 2 × 10^4 cells per well (37 °C and 5% CO2). To induce a DPP9-BRCA2 interaction, 300 nM MMC was added to the cells 8 h after seeding and for a total incubation time of 24 h. Indicated Inhibitors (10 µM) were added 1 h prior to cell fixation. Cells were fixed with 4% formaldehyde in PBS for 10 min and permeabilized with 0.2% Triton‐X‐100 in PBS for 5 min. The proximity ligation assay (PLA) was performed using the Duolink in situ PLA Kit (Sigma Aldrich, USA). Briefly, cells were washed with PBS and blocked with Duolink Blocking solution for 60 min at 37 °C. […] Antibody control coverslips were treated with only one primary antibody to estimate background staining in each experiment. Coverslips were washed and treated with PLA reagents according to the manufacturers protocol. Cells were mounted in DAKO with DAPI fluorescent mounting medium and analyzed using an LSM 710 confocal microscope, 63x NA 1.4 oil immersion objective (Zeiss, Germany). Images were processed using Zen black v2.3 (Zeiss, Germany) and subsequently analyzed using the Duolink ImageTool Setup 1.0.1.2 (Sigma Aldrich, USA).

T10 sequence (Q86TI2 whole entry): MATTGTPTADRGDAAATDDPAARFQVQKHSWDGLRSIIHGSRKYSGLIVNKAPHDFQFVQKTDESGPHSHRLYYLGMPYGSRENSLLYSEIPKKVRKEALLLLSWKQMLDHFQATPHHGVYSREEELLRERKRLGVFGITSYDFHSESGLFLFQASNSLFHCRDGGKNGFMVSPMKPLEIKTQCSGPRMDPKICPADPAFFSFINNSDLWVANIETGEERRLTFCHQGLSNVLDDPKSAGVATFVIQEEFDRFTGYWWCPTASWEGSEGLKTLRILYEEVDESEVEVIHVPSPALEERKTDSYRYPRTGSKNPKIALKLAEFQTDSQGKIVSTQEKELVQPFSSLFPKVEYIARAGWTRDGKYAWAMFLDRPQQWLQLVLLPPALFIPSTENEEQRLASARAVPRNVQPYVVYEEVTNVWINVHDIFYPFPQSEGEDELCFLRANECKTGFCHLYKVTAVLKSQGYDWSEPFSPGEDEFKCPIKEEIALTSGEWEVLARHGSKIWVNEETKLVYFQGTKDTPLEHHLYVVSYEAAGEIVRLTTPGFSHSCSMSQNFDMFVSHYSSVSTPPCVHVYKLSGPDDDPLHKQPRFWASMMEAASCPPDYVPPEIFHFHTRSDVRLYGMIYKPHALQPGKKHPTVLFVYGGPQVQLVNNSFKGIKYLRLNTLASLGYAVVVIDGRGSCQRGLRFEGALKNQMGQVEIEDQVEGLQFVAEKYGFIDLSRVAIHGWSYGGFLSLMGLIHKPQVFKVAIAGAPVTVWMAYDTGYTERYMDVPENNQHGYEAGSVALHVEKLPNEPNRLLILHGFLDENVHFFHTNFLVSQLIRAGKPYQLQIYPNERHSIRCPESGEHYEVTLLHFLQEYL
T3 sequence (P49327 whole entry): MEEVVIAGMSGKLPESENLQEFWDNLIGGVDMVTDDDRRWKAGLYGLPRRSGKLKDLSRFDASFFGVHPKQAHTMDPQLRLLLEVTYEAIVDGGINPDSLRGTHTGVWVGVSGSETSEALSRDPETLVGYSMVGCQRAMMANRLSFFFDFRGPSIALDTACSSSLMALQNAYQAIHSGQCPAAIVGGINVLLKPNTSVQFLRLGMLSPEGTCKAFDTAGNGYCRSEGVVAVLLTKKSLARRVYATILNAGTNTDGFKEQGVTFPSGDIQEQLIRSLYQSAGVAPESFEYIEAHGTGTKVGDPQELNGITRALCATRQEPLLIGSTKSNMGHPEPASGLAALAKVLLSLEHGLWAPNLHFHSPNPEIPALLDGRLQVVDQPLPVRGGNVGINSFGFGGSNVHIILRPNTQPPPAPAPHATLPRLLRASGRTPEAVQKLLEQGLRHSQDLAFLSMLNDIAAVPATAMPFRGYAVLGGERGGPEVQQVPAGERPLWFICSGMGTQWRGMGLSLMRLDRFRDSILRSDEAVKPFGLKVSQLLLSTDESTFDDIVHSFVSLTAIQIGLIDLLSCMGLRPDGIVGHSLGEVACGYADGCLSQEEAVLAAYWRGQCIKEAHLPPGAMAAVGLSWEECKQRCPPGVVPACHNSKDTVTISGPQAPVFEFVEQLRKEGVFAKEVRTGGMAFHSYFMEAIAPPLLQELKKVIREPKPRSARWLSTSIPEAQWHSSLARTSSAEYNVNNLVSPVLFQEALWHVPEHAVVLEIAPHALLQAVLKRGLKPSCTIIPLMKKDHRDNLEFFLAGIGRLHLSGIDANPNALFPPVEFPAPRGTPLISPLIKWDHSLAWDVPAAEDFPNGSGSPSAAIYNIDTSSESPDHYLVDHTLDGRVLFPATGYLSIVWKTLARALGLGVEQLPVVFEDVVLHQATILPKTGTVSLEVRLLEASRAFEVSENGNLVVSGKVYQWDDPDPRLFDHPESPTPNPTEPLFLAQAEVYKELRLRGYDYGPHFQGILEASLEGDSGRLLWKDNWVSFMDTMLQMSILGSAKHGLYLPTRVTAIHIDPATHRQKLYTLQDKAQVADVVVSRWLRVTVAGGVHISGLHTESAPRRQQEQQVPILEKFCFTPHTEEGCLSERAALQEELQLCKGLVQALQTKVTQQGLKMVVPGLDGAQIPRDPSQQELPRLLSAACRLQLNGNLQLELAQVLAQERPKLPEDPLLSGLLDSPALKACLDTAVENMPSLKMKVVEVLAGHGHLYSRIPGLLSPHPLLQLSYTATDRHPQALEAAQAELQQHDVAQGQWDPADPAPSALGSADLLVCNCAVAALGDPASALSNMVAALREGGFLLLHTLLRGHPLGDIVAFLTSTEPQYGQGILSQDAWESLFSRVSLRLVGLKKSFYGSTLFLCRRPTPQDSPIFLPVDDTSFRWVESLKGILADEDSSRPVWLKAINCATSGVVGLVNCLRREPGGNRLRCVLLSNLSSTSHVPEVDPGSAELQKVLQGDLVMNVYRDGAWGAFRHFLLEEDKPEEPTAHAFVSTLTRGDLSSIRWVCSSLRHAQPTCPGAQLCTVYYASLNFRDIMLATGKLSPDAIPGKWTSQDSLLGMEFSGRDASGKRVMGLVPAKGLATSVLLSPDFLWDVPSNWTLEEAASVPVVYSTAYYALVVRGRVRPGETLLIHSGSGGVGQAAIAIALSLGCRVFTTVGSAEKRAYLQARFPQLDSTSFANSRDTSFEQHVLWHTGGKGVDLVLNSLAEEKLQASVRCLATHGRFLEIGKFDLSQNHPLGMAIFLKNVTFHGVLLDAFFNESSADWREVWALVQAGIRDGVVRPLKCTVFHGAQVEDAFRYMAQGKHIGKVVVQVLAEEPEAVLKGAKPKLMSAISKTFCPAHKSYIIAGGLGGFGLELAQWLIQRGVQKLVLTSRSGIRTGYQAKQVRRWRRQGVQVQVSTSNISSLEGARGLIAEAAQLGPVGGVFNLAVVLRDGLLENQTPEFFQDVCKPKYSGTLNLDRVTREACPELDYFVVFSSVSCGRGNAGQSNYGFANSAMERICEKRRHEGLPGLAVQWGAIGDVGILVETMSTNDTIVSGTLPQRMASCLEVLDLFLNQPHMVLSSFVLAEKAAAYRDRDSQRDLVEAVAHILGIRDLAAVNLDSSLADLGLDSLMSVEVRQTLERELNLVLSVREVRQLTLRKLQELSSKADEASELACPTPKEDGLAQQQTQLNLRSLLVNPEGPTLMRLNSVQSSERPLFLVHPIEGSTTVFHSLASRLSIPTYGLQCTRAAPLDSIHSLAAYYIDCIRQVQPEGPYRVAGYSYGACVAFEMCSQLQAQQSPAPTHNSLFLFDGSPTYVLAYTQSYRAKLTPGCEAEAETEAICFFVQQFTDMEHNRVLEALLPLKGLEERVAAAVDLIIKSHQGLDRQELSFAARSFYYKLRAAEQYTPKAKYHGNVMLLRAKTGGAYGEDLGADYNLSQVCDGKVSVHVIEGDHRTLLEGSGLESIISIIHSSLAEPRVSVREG
T8 sequence (P06748 whole entry): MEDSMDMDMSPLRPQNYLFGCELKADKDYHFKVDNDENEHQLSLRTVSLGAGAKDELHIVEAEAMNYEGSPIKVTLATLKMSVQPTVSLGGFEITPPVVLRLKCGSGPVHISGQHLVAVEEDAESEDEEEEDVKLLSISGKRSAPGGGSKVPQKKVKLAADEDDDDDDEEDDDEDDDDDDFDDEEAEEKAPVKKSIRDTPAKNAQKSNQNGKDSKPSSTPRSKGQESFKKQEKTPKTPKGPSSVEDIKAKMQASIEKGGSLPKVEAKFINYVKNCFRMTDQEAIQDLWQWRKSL
T4 sequence (Q13642 whole entry): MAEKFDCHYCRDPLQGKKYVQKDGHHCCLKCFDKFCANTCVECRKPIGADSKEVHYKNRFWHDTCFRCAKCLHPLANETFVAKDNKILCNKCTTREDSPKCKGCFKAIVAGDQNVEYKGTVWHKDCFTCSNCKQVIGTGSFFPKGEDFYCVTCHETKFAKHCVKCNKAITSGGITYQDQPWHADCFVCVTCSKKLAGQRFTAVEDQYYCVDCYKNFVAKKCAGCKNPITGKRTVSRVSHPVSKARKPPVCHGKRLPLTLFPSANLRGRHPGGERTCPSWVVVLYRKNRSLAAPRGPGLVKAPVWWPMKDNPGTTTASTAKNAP
T7 sequence (P22234 whole entry): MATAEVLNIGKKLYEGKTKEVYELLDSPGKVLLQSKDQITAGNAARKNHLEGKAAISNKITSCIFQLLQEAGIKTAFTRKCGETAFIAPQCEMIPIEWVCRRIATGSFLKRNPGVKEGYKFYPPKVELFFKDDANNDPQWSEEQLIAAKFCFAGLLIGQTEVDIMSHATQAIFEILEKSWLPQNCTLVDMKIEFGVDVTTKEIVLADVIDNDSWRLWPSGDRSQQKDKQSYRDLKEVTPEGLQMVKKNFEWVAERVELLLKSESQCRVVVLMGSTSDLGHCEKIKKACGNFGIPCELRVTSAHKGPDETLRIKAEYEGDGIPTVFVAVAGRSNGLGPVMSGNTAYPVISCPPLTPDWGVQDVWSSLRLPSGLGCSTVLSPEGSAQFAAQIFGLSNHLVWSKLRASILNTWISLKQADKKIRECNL
T9 sequence (P22626 whole entry): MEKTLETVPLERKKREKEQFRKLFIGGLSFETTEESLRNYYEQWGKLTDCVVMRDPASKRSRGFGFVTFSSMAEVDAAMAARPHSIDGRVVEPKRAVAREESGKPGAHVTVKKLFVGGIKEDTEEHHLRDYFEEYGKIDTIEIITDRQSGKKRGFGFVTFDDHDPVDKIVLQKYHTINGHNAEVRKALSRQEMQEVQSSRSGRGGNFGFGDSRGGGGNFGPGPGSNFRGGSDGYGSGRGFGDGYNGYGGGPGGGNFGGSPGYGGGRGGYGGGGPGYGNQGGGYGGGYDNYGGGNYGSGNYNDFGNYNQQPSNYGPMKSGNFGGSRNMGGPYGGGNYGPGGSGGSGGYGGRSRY
T6 sequence (P37802 whole entry): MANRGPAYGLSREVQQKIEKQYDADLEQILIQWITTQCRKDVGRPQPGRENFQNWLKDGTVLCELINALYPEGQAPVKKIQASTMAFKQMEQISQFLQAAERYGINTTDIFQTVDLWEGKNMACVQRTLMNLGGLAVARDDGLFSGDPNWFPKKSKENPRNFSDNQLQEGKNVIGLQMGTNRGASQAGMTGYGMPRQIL

Compound: C#CCCCP(=O)(OCC)N1CCCC(N)C1=O.O=C(O)C(F)(F)F (mixture of isomers) [Compound 9]
- Log2-fold change (9/DMSO) [1]: 0.0845
- Log2-fold change (9/DMSO) [2]: -0.5054
- Log2-fold change (9/DMSO) [3]: 0.4818
- Log2-fold change (9/DMSO) [4]: -0.4077
- Log2-fold change (9/DMSO) [5]: 0.9479
- Log2-fold change (9/DMSO) [6]: 0.4985
- Log2-fold change (9/DMSO) [7]: -0.1992
- Log2-fold change (9/DMSO) [8]: 0.3807
- Log2-fold change (9/DMSO) [9]: -0.2704

Compound: CCCCCCP(=O)(OCC)N1CCC[C@H](N)C1=O (some centres unmarked) [Compound 5]
- Cell viability normalized to mock treated cells + 0 µM MMC [10]: 95.9127% and 99.5028% and 95.7865% and 114.42% and 79.6662% and 94.1915% and 91.8119% and 83.2505% and 91.8375%
- 95% confidence interval of difference [10]: -2,823 to 18,38

Compound: CCCCCc1ccc(SCCP(=O)(OCC)N2CCC[C@H](N)C2=O)cc1.O=C(O)C(F)(F)F (some centres unmarked) [Compound 16]
- Cell viability normalized to mock treated cells + 0 µM MMC [10]: 97.3681% and 98.2989% and 98.3512% and 104.946% and 88.3417% and 98.5541% and 95.4309% and 92.3469% and 88.9994%
- 95% confidence interval of difference [10]: -4,629 to 16,57
- effect on cell viability without MMC ([10]; HeLa wild-type, 10 µM, 72 h): not toxic to cells; also recorded: did not show cytotoxic effects
- 95% confidence interval of difference ([11]; Figure 5c): -75,96 to -55,68
- 95% confidence interval of difference ([11]; Figure S10a replicate 1): -67,48 to -40,38
- 95% confidence interval of difference ([11]; Figure S10a replicate 2): -89,07 to -45,54
- 95% confidence interval of difference ([11]; Figure S10a replicate 3): -92,21 to -59,25
- effect on MMC-induced DPP9-BRCA2 PLA events ([11]; HeLa wild-type, 300 nM MMC 24 h, 10 µM inhibitor): significant reduction in the number of MMC-induced PLA events
- Log2-fold change (16/9) [2]: -0.1923
- Log2-fold change (16/9) [3]: -0.4881
- Log2-fold change (16/9) [4]: 0.2096
- Log2-fold change (16/9) [6]: -0.3112
- Log2-fold change (16/9) [7]: 0.0197
- Log2-fold change (16/9) [8]: -0.43
- Log2-fold change (16/9) [9]: -0.7288
